Laboratory results from PMC7349874, “High Content Screening Using New U2OS Reporter Cell Models Identifies Harmol Hydrochloride as a Selective and Competitive Antagonist of the Androgen Receptor” (Cells, 2020).
Structures can show the parent of a compound that is named as a salt.

Legend:
[1] = target: T1, pregnane X receptor (PXR) (Homo sapiens, UniProt O75469); conditions: 16 h
T1 sequence (O75469 146-433 limits assumed): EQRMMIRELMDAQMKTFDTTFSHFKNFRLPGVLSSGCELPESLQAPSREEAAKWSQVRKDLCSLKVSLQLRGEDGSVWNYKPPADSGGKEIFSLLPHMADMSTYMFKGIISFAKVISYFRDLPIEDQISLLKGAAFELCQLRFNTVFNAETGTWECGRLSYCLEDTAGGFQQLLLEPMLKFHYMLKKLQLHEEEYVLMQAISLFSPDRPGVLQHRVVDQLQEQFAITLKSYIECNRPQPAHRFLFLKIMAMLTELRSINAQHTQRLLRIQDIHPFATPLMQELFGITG
Source text: (§1) HG5LN MR and HG5LN PXR luciferase reporter cell lines were obtained by stable expression of individual ligand binding domains fused to GAL4 DNA binding domain in HG5LN (HeLa GAL4REx5-luciferase) cells, as previously described. HELN PR cells were obtained by stably expressing PR with the ERα DNA binding domain in HELN (HeLa ERE-luciferase) cells and HMLN GR cells were obtained by stable co-transfection of HeLa cells with a plasmid encoding for a glucocorticoid responsive gene (MMTV-Luc-SV-Neo) and a glucocorticoid receptor expressing plasmid, as previously described.
(§2) Agonistic activities were evaluated in HMLN GR, HELN PR, HG5LN MR, and HG5LN PXR cells, using dexamethasone 100 nM, R5020 100 nM, aldosterone 100 nM, and SR12813 3 μM as a positive control, respectively. […] RU486 was used as a control antagonist for GR and PR, and spironolactone for MR.
(§3) HMLN glucocorticoid receptor (GR), HG5LN mineralocorticoid receptor (MR), HELN progesterone receptor (PR) and HG5LN PXR cells were used to evaluate the antagonistic effect of the tested compounds on (A) the glucocorticoid receptor (GR), (B) the mineralocorticoid receptor (MR), (C) the progesterone receptor (PR) and (D) the agonistic activity towards the pregnane X receptor (PXR). […]

[2] = test system: AR target genes TMPRSS2, FKBP5, PSA; assay: RT-qPCR of AR target genes in LNCaP cells; conditions: 3 µM, 24 h, 1 nM R1881
Method: LNCaP and VCaP cells were seeded in 6-well plates (10^6 and 2 × 10^6 cells per well, respectively) and, 48 h later, complete medium was replaced by charcoal-stripped medium with 5% FBS. Cells were then treated for 24 h with the tested compounds, and RNA extraction was performed using the Quick RNA Miniprep kit (Zymo-Research, Irvine, CA, USA), according to the manufacturer’s protocol. Reverse transcription was performed with 0.5 µg total RNA using the SuperScript III reverse transcriptase kit (ThermoFisher, Waltham, MA, USA), according to the manufacturer’s protocol, in a final volume of 20 µL. The levels of genes transcripts were measured by real time PCR using a LightCycler 480 system (Roche Life Science, Penzberg, Germany) in the presence of SYBRGreen (SYBR® Premix Ex Taq^tm) and the following primers: FKBP5, sense 5′-[sequence]-3′; antisense 5′-[sequence]-3′; PSA, sense 5′-[sequence]-3′; antisense 5′-[sequence]-3′; TMPRSS2, sense 5′-[sequence]-3′, antisense 5′-[sequence]-3′; GR, sense 5′-[sequence]-3′, antisense 5′-[sequence]-3′; HPRT, sense 5′-[sequence]-3′; antisense 5′-[sequence]-3′; GAPDH, sense 5′-[sequence]-3′; antisense 5′-[sequence]-3′. Expression levels were evaluated with the ΔΔCt method and were normalized to GAPDH. Results are expressed as mRNA expression, relative to control (untreated cells), and are the mean ± SEM of 3 independent experiments.

[3] = target: T2, mineralocorticoid receptor (MR) (Homo sapiens, UniProt P08235); assay: Transactivation assay in HG5LN MR cells; format: cell-based; conditions: 16 h, 1 nM aldosterone, highest concentrations used (>1 µM)
T2 construct: expressed in transfected cells
T2 sequence (P08235 726-964 limits assumed): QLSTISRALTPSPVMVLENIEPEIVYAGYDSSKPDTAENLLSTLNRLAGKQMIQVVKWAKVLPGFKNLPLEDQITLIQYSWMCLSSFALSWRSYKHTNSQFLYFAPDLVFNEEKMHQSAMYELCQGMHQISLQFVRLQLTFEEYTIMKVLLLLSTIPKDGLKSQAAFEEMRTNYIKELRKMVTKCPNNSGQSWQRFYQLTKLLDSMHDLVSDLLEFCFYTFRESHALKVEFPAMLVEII
Source text: as §1, §2, §3

PC3 cells = assay: Spheroid growth (CellTiter-Glo), PC3; format: cell-based, human; conditions: 7 days, AR negative cells
AR = conditions: cited from earlier work
[4] = target: T3, progesterone receptor (PR) (Homo sapiens, UniProt P06401); assay: Transactivation assay in HELN PR cells; format: cell-based; conditions: 16 h, antagonism in the presence of 1 nM R5020
T3 sequence (P06401 679-933 limits assumed): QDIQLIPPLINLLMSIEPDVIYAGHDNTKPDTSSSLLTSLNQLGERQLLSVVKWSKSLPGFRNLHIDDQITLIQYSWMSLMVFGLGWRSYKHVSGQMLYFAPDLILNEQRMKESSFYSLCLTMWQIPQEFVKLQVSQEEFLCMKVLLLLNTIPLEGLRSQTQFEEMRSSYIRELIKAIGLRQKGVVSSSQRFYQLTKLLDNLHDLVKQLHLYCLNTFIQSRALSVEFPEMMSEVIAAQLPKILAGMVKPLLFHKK
Source text: as §1, §2, §3

[5] = target: T4, glucocorticoid receptor (GR) (Homo sapiens, UniProt P04150); assay: Transactivation assay in HMLN GR cells; format: cell-based; conditions: 16 h, antagonism in the presence of 5 nM dexamethasone
T4 construct: expressed in transfected cells
T4 sequence (P04150 1-777): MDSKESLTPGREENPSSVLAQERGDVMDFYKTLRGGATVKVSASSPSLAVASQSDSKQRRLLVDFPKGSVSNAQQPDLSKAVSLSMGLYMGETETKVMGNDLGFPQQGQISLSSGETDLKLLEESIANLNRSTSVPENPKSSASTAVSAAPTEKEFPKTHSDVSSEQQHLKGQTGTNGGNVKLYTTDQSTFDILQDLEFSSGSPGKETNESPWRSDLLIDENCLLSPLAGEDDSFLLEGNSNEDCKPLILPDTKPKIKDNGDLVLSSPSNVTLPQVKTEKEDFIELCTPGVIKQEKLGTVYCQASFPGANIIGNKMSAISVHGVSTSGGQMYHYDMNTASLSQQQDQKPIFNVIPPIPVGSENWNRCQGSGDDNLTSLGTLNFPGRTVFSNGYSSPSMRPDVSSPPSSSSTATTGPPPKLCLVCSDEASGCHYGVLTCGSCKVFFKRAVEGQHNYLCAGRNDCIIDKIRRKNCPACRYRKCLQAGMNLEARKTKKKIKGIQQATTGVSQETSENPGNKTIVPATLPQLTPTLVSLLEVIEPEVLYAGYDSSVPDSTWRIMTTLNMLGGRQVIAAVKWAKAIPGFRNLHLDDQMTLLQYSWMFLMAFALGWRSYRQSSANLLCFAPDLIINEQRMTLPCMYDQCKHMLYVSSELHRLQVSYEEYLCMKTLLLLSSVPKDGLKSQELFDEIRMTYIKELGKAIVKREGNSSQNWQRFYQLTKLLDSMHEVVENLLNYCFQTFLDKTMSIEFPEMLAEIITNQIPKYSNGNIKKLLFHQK
Source text: as §1, §2, §3

Cc1nccc2c1[nH]c1cc(O)ccc12 [harmol hydrochloride, Harmol hydrochloride monohydrate]
Activity towards PXR (agonistic) [1]: did not show any significant activity
Expression of the AR non-target gene HPRT [2]: unaffected
R1881-mediated expression of AR target genes TMPRSS2, FKBP5, PSA [2]: significant decrease
Antagonistic activity towards MR [3]: small antagonistic activity
Growth of PC3 spheroids (PC3 cells): no effect
Concentration competing for ligand binding relative to the concentration necessary to fully inhibit AR activity (AR): 30- to 100 fold
Inhibition of AR activation in a chemical genomic screen (AR): weak inhibitor
Nature of AR inhibition reported earlier (AR): non-competitive inhibitor of AR
Activity towards PR [4]: did not show any significant activity
Activity towards GR [5]: did not show any significant activity
